Results from patent US20240009170A1, “INHIBITION OF GLYCOGEN SYNTHASE KINASE-3 (GSK-3)” (Brown University, priority 2020, published 2024).
Entries after “also recorded” stand apart in the source; their conditions may differ. Like-named read-outs stand apart in the source and are kept apart here.

Experiments:
HCT-116 = assay: Flow cytometric analysis of cell surface markers, HCT-116; assay type: cell-based, Human; details: post-treatment
Description: (§1) FIG. 12 is a set of bar graphs showing flow cytometric analyses of cell surface markers of tumor and immune cells treated with 9-ING-41 in vitro. FIG. 12(A) HCT-116, FIG. 12(B) HT-29, FIG. 12(C) TALL-104, and FIG. 12(D) NK-92 cells were treated with indicated concentrations of 9-ING-41 for forty-eight hours, stained for indicated cell surface marker expression, and analyzed with a BD LSRII. Statistical significance was determined using two-tailed unpaired T tests.
(§2) To further understand the differential 9-ING-41-mediated impacts on protein expression, the inventors treated tumor and immune cells in vitro with 9-ING-41, then performed a flow cytometric analysis for expression of cell surface markers. […] A similar trend occurred in HT-29 cells, although not statistically significant. […] FIG. 10(C). […] FIG. 10(D).

HT-29 = assay: Flow cytometric analysis of cell surface markers, HT-29; assay type: cell-based, Human; details: post-treatment, 48 hours
Description: as §1, §2

CT-26 = assay: Syngeneic murine colon carcinoma BALB/c model with MSS cell line CT-26, survival and response; details: mouse, in vivo
Description: In vivo studies. […] Six to seven weeks old male BALB/c mice were purchased from Taconic. […] 100 μL was injected subcutaneously into the rear flanks. Once tumor volume reached at least 100 mm3, mice were randomly assigned to one of four groups (three mice/group): vehicle, ONC212, 2-DG, combination of ONC212 p2-DG. ONC212 was delivered by oral gavage at the dosage of 50 mg/kg in a solution of 70% phosphate-buffered serum, 10% DMSO, and 20% Kolliphor EL (Sigma-Aldrich, catalog no. C5135), three times per week. The treatment continued until mice developed signs of toxicity or discomfort from excessive tumor growth. Mice were weighed once a week to monitor signs of drug toxicity. The length (L) and width (VV) of the masses were measured three times per week with a digital caliper. The tumor volume was calculated applying the formula: 0.5LW2.
To evaluate the potential for 9-ING-41 to increase efficacy of immune checkpoint blockade, the inventors used a syngeneic murine colon carcinoma BALB/c murine model with a microsatellite stable (MSS) cell line CT-26.

ovarian cancer = details: cited from earlier work
TALL-104 cells = assay: Cytokine profile of immune cell culture supernatant, TALL-104; assay type: cell-based, Human; details: 1 μM, 48 hours
Description: (§3) Collection of cell culture supernatants used in cytokine measurements. Cells were plated at 3.5×10^4 cells in a 48-well plate (Thermo Fisher Scientific, Waltham, MA, USA) in complete medium and incubated at 37° C. with 5% CO2. At twenty-four hours after plating, almost all the tumor cells were adherent to the bottom of the flask and the complete medium was replaced with drug-containing medium. Subsequently, the culture supernatants were collected after forty-eight hours of incubation and were frozen at −80° C. until the measurement of cytokines was performed. The day of analysis, samples were thawed and centrifuged to remove cellular debris.
(§4) Human cytokine profiling. Human cell line culture supernatants were analyzed using an R&D systems Human Premixed Multi-Analyte Kit (R&D Systems, Inc., Minneapolis, MN, USA) and a Luminex 200 Instrument (LX200-XPON-RUO, Luminex Corporation, Austin, TX, USA) according to the manufacturer's instructions. […]
(§5) 9-ING-41 increases secreted cytotoxic proteins IFN-v, Granzyme B, and TRAIL in immune cells. […] Here, the inventors determined how 9-ING-41 treatment impacts the immune cell cytokinome. […]

pulmonary fibrosis = details: cited from earlier work
SW480 tumor cells = assay: Co-culture of NK-92 natural killer cells and SW480 tumor cells; assay type: cell-based, Human
Description: Immune cell co-culture experiments. Co-culture experiments were conducted with GFP+ SW480 or HCT-116 colorectal cancer cells and either NK-92 natural killer cells or TALL-104 T cells in a 48-well plate, in the presence or absence of 9-ING-41. HCT-116 cells were labeled using CellTracker™ Green CMFDA (5-chloromethylfluorescein diacetate), immune cells (NK-92, TALL-104) were labeled using CellTracker™ Blue CMAC Dye (7-amino-4-chloromethylcoumarin), and ethidium homodimer-1 (EthD-1) was used as a marker of cell death (Invitrogen, Thermo Fisher Scientific, Waltham, MA, USA).
Co-culture experiments were conducted with GFP+ SW480 colorectal cancer cells and either NK-92 natural killer cells or TALL-104 T cells at various effector/target ratios in a 48-well plate, in the presence or absence of 9-ING-41.
The inventors co-cultured green fluorescent SW480 tumor cells with NK-92 natural killer cells at a 1:1 effector target cell ratio (E:T) for twenty-four hours and imaged by fluorescence microscopy. Ethidium homodimer was used to visualize dead cells. The inventors obtained photographic images of the co-cultured cells.
An average baseline amount of NK-92-mediated tumor cell killing of about 39% occurred in the absence of drug.

[1] = test system: healthy donor-derived CD8+ T cells; assay: Cytokine profile of immune cell culture supernatant, donor-derived CD8+ T cells; assay type: cell-based, Human; details: 1 μM, 48 hours
Description: Isolation of donor derived CD8+ T cells. An Easy Step Human CD8+ T Cell Isolation Kit was used to isolated CD8+ T cells from a donor PBMC sample via negative selection (Cat #, 17913, Stem Cell Technologies, Vancouver, Canada).
as §3, §4, §5

[2] = in vivo; cited from earlier work
advanced malignancies = details: cited from earlier work

Cn1cc(C2=C(c3coc4ccc(F)cc34)C(=O)NC2=O)c2cc3c(cc21)OCO3 [9-ING-41]
DR5 expression (HCT-116): significant decreased
ICAM-1 expression (HCT-116): significant increase
HLA-E and PD-L1 surface expression (HCT-116; 48 hours): statistically significant increase
HLA-E and PD-L1 surface expression (HT-29): statistically significant increase
survival compared to control group (CT-26): statistically significant improved survival; also recorded: prolonged the survival
activity compared with lithium and other ATP-competitive inhibitors such as SB216763 (ovarian cancer): more active
IFN-γ, granzyme B, and TRAIL concentrations (TALL-104 cells): increases
pulmonary fibrosis and pulmonary function (pulmonary fibrosis; models of TGF-β): reduced pulmonary fibrosis and improved pulmonary function
pulmonary fibrosis and pulmonary function (pulmonary fibrosis; models of bleomycin pulmonary fibrosis): reduced pulmonary fibrosis and improved pulmonary function
Natural Killer activity (SW480 tumor cells; IC50 dose, 1:1 E:T, 24 hours): stimulation of Natural Killer activity
natural killer (NK-92) cell killing of colorectal cancer cells (SW480 tumor cells; compared to controls without drug treatment): significant increase
all three cytotoxic molecules (IFN-γ, granzyme B, TRAIL) [1]: increases
blood brain barrier [2]: crosses the blood brain barrier
clinical response (advanced malignancies; a patient with BRAF V600E metastatic melanoma, previously treated): complete response
increased infection or opportunistic/unusual infections (advanced malignancies; even in patients with extensive prior cytotoxic therapy): no evidence of increased infection
attributable Grade 3 or 4 serious adverse events (advanced malignancies; monotherapy and combination with standard chemotherapy, NCT03678883): without attributable Grade 3 or 4 serious adverse events
myelosuppression (advanced malignancies; patients): not associated with myelosuppression of any degree
safety profile (advanced malignancies; preliminary results from ongoing clinical trials): excellent safety profile devoid of myelosuppressive and immunosuppressive effects
